Experimental data published in the NIST ThermoML archive (doi:10.1021/je200811n).

Details: Hot wire method

F/C=C/C(F)(F)F [trans-1,3,3,3-tetrafluoropropene]
Details | thermal conductivity [W/m/K]
262.32 K, 98 kPa, Gas | 0.01085
262.32 K, 15456 kPa, Liquid | 0.09473
262.36 K, 10416 kPa, Liquid | 0.09243
262.42 K, 488 kPa, Liquid | 0.08745
262.42 K, 5301 kPa, Liquid | 0.08997
262.42 K, 21223 kPa, Liquid | 0.09713
262.45 K, 15452 kPa, Liquid | 0.09456
262.49 K, 10417 kPa, Liquid | 0.09221
262.56 K, 488 kPa, Liquid | 0.08718
262.56 K, 5298 kPa, Liquid | 0.08972
262.61 K, 123 kPa, Gas | 0.01085
262.62 K, 107 kPa, Gas | 0.01086
262.63 K, 98 kPa, Gas | 0.01084
262.65 K, 80 kPa, Gas | 0.01085
262.67 K, 97 kPa, Gas | 0.01087
262.79 K, 21214 kPa, Liquid | 0.0972
262.84 K, 15455 kPa, Liquid | 0.09447
262.89 K, 10416 kPa, Liquid | 0.0922
262.96 K, 5304 kPa, Liquid | 0.0897
262.96 K, 21225 kPa, Liquid | 0.09681
262.98 K, 488 kPa, Liquid | 0.08717
262.99 K, 121 kPa, Gas | 0.0108
263 K, 15446 kPa, Liquid | 0.0942
263.01 K, 106 kPa, Gas | 0.01081
263.02 K, 97 kPa, Gas | 0.01085
263.04 K, 80 kPa, Gas | 0.01079
263.05 K, 98 kPa, Gas | 0.01086
263.06 K, 10416 kPa, Liquid | 0.09188
263.13 K, 5299 kPa, Liquid | 0.08937
263.16 K, 488 kPa, Liquid | 0.08692
263.36 K, 21219 kPa, Liquid | 0.09681
263.39 K, 119 kPa, Gas | 0.01089
263.4 K, 15447 kPa, Liquid | 0.0942
263.42 K, 104 kPa, Gas | 0.01088
263.43 K, 97 kPa, Gas | 0.01089
263.45 K, 80 kPa, Gas | 0.01089
263.45 K, 98 kPa, Gas | 0.01081
263.48 K, 10415 kPa, Liquid | 0.09186
263.55 K, 21219 kPa, Liquid | 0.09652
263.56 K, 5297 kPa, Liquid | 0.08933
263.59 K, 488 kPa, Liquid | 0.08681
263.6 K, 15455 kPa, Liquid | 0.09401
263.68 K, 10416 kPa, Liquid | 0.09153
263.77 K, 5291 kPa, Liquid | 0.08901
263.8 K, 488 kPa, Liquid | 0.08652
272.01 K, 173 kPa, Gas | 0.01193
272.22 K, 93 kPa, Gas | 0.01165
272.23 K, 118 kPa, Gas | 0.01168
272.23 K, 164 kPa, Gas | 0.01178
272.24 K, 170 kPa, Gas | 0.01181
272.27 K, 80 kPa, Gas | 0.01132
272.44 K, 180 kPa, Gas | 0.01146
272.47 K, 93 kPa, Gas | 0.01156
272.47 K, 117 kPa, Gas | 0.01157
272.47 K, 162 kPa, Gas | 0.01169
272.51 K, 78 kPa, Gas | 0.01132
272.73 K, 92 kPa, Gas | 0.01149
272.73 K, 159 kPa, Gas | 0.01161
272.74 K, 116 kPa, Gas | 0.0115
272.74 K, 177 kPa, Gas | 0.01151
272.76 K, 76 kPa, Gas | 0.01132
272.99 K, 157 kPa, Gas | 0.01156
273 K, 90 kPa, Gas | 0.01144
273.01 K, 114 kPa, Gas | 0.01146
273.03 K, 74 kPa, Gas | 0.01133
273.1 K, 175 kPa, Gas | 0.01153
273.28 K, 154 kPa, Gas | 0.01152
273.29 K, 89 kPa, Gas | 0.01139
273.3 K, 112 kPa, Gas | 0.01142
273.31 K, 73 kPa, Gas | 0.01134
273.47 K, 172 kPa, Gas | 0.01157
273.48 K, 166 kPa, Gas | 0.0116
273.58 K, 119 kPa, Gas | 0.01167
273.62 K, 94 kPa, Gas | 0.01167
273.64 K, 84 kPa, Gas | 0.01168
273.88 K, 163 kPa, Gas | 0.0116
274 K, 118 kPa, Gas | 0.01166
274.07 K, 93 kPa, Gas | 0.01171
274.08 K, 78 kPa, Gas | 0.01173
274.32 K, 160 kPa, Gas | 0.01166
274.45 K, 116 kPa, Gas | 0.01173
274.52 K, 92 kPa, Gas | 0.01174
274.54 K, 77 kPa, Gas | 0.01173
274.78 K, 158 kPa, Gas | 0.01168
274.92 K, 115 kPa, Gas | 0.01175
275.01 K, 91 kPa, Gas | 0.01175
275.03 K, 75 kPa, Gas | 0.01176
275.27 K, 155 kPa, Gas | 0.01171
275.43 K, 113 kPa, Gas | 0.01179
275.53 K, 90 kPa, Gas | 0.0118
275.55 K, 73 kPa, Gas | 0.01186
281.19 K, 491 kPa, Liquid | 0.08061
281.19 K, 20251 kPa, Liquid | 0.09143
281.22 K, 15223 kPa, Liquid | 0.08878
281.25 K, 10286 kPa, Liquid | 0.08621
281.25 K, 23293 kPa, Liquid | 0.09262
281.26 K, 20239 kPa, Liquid | 0.09104
281.27 K, 458 kPa, Liquid | 0.08057
281.27 K, 5355 kPa, Liquid | 0.08361
281.29 K, 15230 kPa, Liquid | 0.0886
281.32 K, 10282 kPa, Liquid | 0.08605
281.34 K, 5380 kPa, Liquid | 0.08336
281.37 K, 102 kPa, Gas | 0.01233
281.37 K, 144 kPa, Gas | 0.01241
281.37 K, 199 kPa, Gas | 0.01253
281.37 K, 244 kPa, Gas | 0.01266
281.57 K, 23287 kPa, Liquid | 0.09254
281.59 K, 243 kPa, Gas | 0.01263
281.59 K, 20208 kPa, Liquid | 0.09091
281.6 K, 199 kPa, Gas | 0.01245
281.61 K, 101 kPa, Gas | 0.01221
281.61 K, 142 kPa, Gas | 0.0123

Liquid
Details | thermal conductivity [W/m/K]
263.15 K | 0.08688
273.15 K | 0.08321
